Data on 1 compound can be found in patent US20100215710A1, “Beta-2 Adrenergic Receptor Agonists and Antagonists and Modulation of Wound Healing” (The Regents of the University of California, priority 2005, published 2010).

What all share (type): cell-based
Assay [1] deals with human keratinocytes. In words: Keratinocyte proliferation assay (β-AR agonist, OA). As for the experimental part: Keratinocytes were released from the tissue culture plate by treatment with 0.25% trypsin/EDTA (Gibco, Grand Island, N.Y.), resuspended in KGM and counted using a haemocytometer. Cells were either untreated or pre-treated with okadaic acid (OA) (10 nM) for 45 minutes prior to β-AR agonist (1 μM) addition. 5×10^4 cells were plated per well in a 12 well plate in triplicate in the presence or absence of 1 μM β-AR agonist, 10 nM OA or both. Triplicate wells were harvested and counted on days 2, 4, 6, 8. The medium was changed every day. Significance was taken as p<0.01, using Student's t test (unpaired) to compare the means of the cell populations.
5×10^4 […] keratinocytes were plated per well in a 12 well plate in triplicate in the presence or absence of β-AR agonist (1 μM) (FIG. 2 Panel A; control represented by circles, 1 μM β-AR agonist by squares), or pre-treated with 10 nM OA for 30 minutes prior to the addition of OA alone or both OA and β-AR agonist, (FIG. 2 Panel B; OA represented by X's and OA/β-AR agonist by stars). Cells were harvested and counted on days 2, 4, 6, 8 as described. The data are representative of three independent experiments with at least two different keratinocyte strains. Values plotted are means+/−SEM. *P<0.01 between β-AR agonist and controls.

Assay [2] concerns adult human CECs. In words: Single cell migration assay, adult human corneal epithelial cells. How it is done: Glass bottomed 35 mm dishes (MatTek Corporation, Ashland, Mass.) were coated with collagen I (60 μg/ml) (Cohesion Technologies, Palo Alto, Calif.) in PBS for 1 hour at 37° C. Adult human CECs were plated at a density of 50 cells/mm^2 for 2 hours at 37° C. Cells were pre-incubated with either CGM alone or CGM containing 100 nM okadaic acid (OA) for 45 minutes at 37° C. Untreated cells were then incubated with CGM alone (control) or with CGM containing either 20 μM β-AR antagonist, 10 nM or 1 μM β-AR agonist. Pre-treated cells were stimulated with 100 nM OA alone or both 10 nM or 1 μM β-AR agonist and 100 nM OA at time 0. The 35 mm glass-bottomed dishes were placed in a heating chamber, designed to maintain the media between 35-37° C., secured to the stage of an inverted Nikon Diaphot microscope. Individual cell migration was monitored over a 1 hour period at 37° C., as described previously (Pullar and Isseroff (2005b) “Cyclic AMP mediates keratinocyte directional migration in an electric field” J Cell Sci 118:2023-2034). […] After each cell's center of mass was tracked using the Open Lab software, migration speed and distance were calculated and imported to Excel (Microsoft Corporation, Redmond, Wash.). […]

Assay [3] concerns adult human CECs. In words: Immunofluorescent staining of actin and vinculin, adult human CECs. How it is done: Sterile glass cover slips were transferred into 12 well dishes and collagen-coated with 60 μg/ml collagen I in PBS for 1 hour at 37° C. Cover slips were washed three times with CGM and 3×10^4 adult human CECs were added per well and allowed to attach for 3 hours or overnight. Cells were untreated (control […]), treated with 20 μM β-AR antagonist, 10 nM or 1 μM β-AR agonist for 15 minutes, 100 nM OA for 45 minutes, or pre-treated with 100 nM OA for 30 minutes prior to the addition of 10 nM or 1 μM β-AR agonist for 15 minutes. […]
Cells plated in the absence of β-AR agonist are polarized and crescent shaped with a broad lamellipodium, characteristic of the migratory phenotype (Ridley et al. (2003) “Cell migration: integrating signals from front to back” Science 302:1704-9). […] Image J was used to measure the actin and vinculin associated fluorescence by measuring the mean pixel intensity (MPI) of 25 cells from each condition. Control cells have an MPI of 40.3+/−4.8. β-AR agonist treatment has no significant effect on actin and vinculin associated fluorescence; the MPI of β-AR agonist-treated cells is 44.6+/−2.

Turning to `C=C1[C@@H](O)[C@@H]2O[C@]3(CC[C@H](/C=C/[C@@H](C)[C@@H]4CC(C)=C[C@@]5(O[C@H](C[C@@](C)(O)C(=O)O)CC[C@H]5O)O4)O3)CC[C@H]2O[C@@H]1[C@@H](O)C[C@H](C)[C@H]1O[C@@]2(CCCCO2)CC[C@H]1C` [OA, okadaic acid], the “effect on keratinocyte proliferation” value in assay [1] (OA 10 nM alone) is “no effect”. Besides, the “effect on β2-AR-mediated decrease in proliferation” value in assay [1] (OA 10 nM pre-treatment, then OA plus 1 μM β-AR agonist) was “completely prevents”. For the same compound, in assay [2] (OA 100 nM alone), the “effect on migration rate” value is “no effect”. Also, in assay [2] (OA 100 nM pre-treatment, then OA plus β-AR agonist), the “effect on β-AR agonist-mediated decrease in migration rate” value is listed as “completely prevents”. The “effect on cytoskeletal organization” value in assay [3] (OA 100 nM alone) was “no effect”. In addition, in assay [3] (OA 100 nM pre-treatment prior to β-AR agonist 10 nM), the “effect on β2-AR-mediated alterations in cytoskeletal organization” value is reported as “prevents”.
